Like-named read-outs stand apart in the source and are kept apart here.

The record followed here is patent publication US7932262B2 (Novartis AG, priority 2006, dated 2011).

The subject of one assay is PC-3 cells. The experiment in a line: Cell Proliferation Assay (Cell Titer Glo), PC-3 cell line. Type of assay: cell-based. The settings on record: Homo sapiens. A digest of the protocol:
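PC-3 cells, 1000 cells/well, left to adhere 3-5 h, then exposed for 3 days at 37° C to compounds as 1:3 serial dilutions from 500× DMSO stocks diluted in growth medium. Medium then replaced with fresh medium and viability read by Cell Titer Glo luminescence.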
Background: Cellular ATP, detected with luciferase, serves as a proxy for viable cell number.

Another assay deals with T1, PDK1 kinase (Homo sapiens, UniProt O15530).
T1 sequence (O15530 1-556): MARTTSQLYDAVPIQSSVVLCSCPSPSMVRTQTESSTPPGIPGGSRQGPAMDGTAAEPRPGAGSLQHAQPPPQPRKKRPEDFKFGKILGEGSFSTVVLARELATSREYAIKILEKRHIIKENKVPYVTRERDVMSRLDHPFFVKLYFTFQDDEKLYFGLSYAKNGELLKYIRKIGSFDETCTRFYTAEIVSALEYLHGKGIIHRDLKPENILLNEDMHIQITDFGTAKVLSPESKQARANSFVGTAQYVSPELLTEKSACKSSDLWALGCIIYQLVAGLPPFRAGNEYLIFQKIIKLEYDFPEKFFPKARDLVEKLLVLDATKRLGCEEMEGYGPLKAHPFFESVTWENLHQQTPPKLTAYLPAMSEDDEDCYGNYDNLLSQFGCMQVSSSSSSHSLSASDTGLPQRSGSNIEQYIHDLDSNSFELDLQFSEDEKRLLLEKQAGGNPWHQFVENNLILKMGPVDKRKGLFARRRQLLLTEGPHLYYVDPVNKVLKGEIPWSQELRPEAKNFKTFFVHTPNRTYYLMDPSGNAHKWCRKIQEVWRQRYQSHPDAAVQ
The experiment in a line: PDK1 Kinase Alpha Screen Assay. Type of assay: biochemical. The settings on record: read-out: PDK1 IC50. The gist of the method: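 Test compounds were incubated with PDK1 kinase, 10 uM ATP and 50 nM biotinylated peptide substrate for 3-18 hours at pH 7.5 with 2.5% DMSO. Peptide phosphorylation was then detected by AlphaScreen proximity luminescence using a phospho-(Ser/Thr) PKA substrate antibody.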

In the next assay the test system is A2780 cells. The experiment in a line: Cell Proliferation Assay (Cell Titer Glo), A2780. Type of assay: cell-based. The settings on record: Homo sapiens, read-out: CPEC50 A2780. The gist of the method:
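Cells seeded at 1000/well, allowed to adhere 3-5 h, then exposed to DMSO-dissolved compounds for 3 days at 37° C., 5% CO2. Medium replaced before Cell Titer Glo addition; luminescence read after 10 min.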

Setting [1] is: PC-3, Cell Proliferation Assay, PC3, read-out: CPEC50 PC3.
Where [2] appears, read: Cell Proliferation Assay, A2780.
The mark [3] stands for this setting: cell proliferation, A2780 cells.

On to `CC(C)N1CCC(Oc2ccc3cnc(Nc4ccc(S(=O)(=O)N5CCOCC5)cc4)nc3c2)CC1` [Compound 54, [7-(1-Isopropyl-piperidin-4-yloxy)-quinazolin-2-yl]-[4-(morpholine-4-sulfonyl)-phenyl]-amine], for which the EC50 is under 5 µM with PC-3 cells (PC-3, 72 h, PC-3 cells, 3 days incubation, read-out: CP EC50 PC3) and under 5 µM in the assay with A2780 cells (72 h, A2780 cells, 3 days incubation). The IC50 (in general, the concentration that gives 50% inhibition) on PDK1 kinase is under 5 µM.
In the case of `Cc1ccc(OC2CCNCC2)c2nc(Nc3ccc(C(=O)NC4CC4)cc3)ncc12` [Compound 364, N-cyclopropyl-4-(5-methyl-8-(piperidin-4-yloxy)quinazolin-2-ylamino)benzamide], the EC50 in the assay with PC-3 cells (setting [1]) and in the assay on A2780 cells (setting [2]) was under 5 µM throughout. Also, the IC50 on PDK1 kinase (PDK1 Kinase Alpha Screen Assay) was under 5 µM.
Regarding `NS(=O)(=O)c1ccc(Nc2ncc3cccc(Oc4ccccc4)c3n2)cc1` [Compound 405, 4-(8-phenoxyquinazolin-2-ylamino)benzenesulfonamide], the EC50 in the assay with PC-3 cells (setting [1]) and in the assay with A2780 cells (setting [2]) was under 5 µM each time. In addition, on PDK1 kinase (PDK1 Kinase Alpha Screen Assay), the IC50 is under 5 µM.
`NS(=O)(=O)c1ccc(Nc2ncc3cccc(OCC4CCNCC4)c3n2)cc1` [Compound 509, 4-(8-(piperidin-4-ylmethoxy)quinazolin-2-ylamino)benzenesulfonamide]: the EC50 with PC-3 cells (setting [1]) and in the assay with A2780 cells (setting [2]) was under 5 µM in each case. In addition, the IC50 at PDK1 kinase (PDK1 Kinase Alpha Screen Assay) is under 5 µM.
For `CC(C)Oc1cccc2cnc(Nc3ccc(S(N)(=O)=O)cc3)nc12` [Compound 511, 4-(8-isopropoxyquinazolin-2-ylamino)benzenesulfonamide], the EC50 in the assay on PC-3 cells (setting [1]) and in the assay on A2780 cells (setting [2]) was under 5 µM throughout. Besides, on PDK1 kinase (PDK1 Kinase Alpha Screen Assay), the IC50 was under 5 µM.
Take `NS(=O)(=O)c1ccc(Nc2ncc3cccc(OC4CCCC4)c3n2)cc1` [Compound 512, 4-(8-(cyclopentyloxy)quinazolin-2-ylamino)benzenesulfonamide]: the EC50 in the assay on PC-3 cells (setting [1]) and in the assay on A2780 cells (setting [2]) was under 5 µM each time. On PDK1 kinase (PDK1 Kinase Alpha Screen Assay), the IC50 was under 5 µM.
With `CC(C)N1CCC(COc2cccc3cnc(Nc4ccc(S(N)(=O)=O)cc4)nc23)CC1` [Compound 519, 4-(8-((1-isopropylpiperidin-4-yl)methoxy)quinazolin-2-ylamino)benzenesulfonamide], the EC50 with PC-3 cells (setting [1]) and with A2780 cells (setting [2]) was under 5 µM throughout. In addition, the IC50 on PDK1 kinase (PDK1 Kinase Alpha Screen Assay) is under 5 µM.
With `CC(C)Oc1cccc2cnc(Nc3ccc(C(N)=O)cn3)nc12` [Compound 520, 6-(8-isopropoxyquinazolin-2-ylamino)nicotinamide], the EC50 in the assay on PC-3 cells (setting [1]) was under 5 µM; with A2780 cells (setting [2]) it was 5 to 10 µM.
With `CC(C)Oc1cccc2cnc(Nc3ccccn3)nc12` [Compound 521, 8-isopropoxy-N-(pyridin-2-yl)quinazolin-2-amine], the EC50 with PC-3 cells (setting [1]) is under 5 µM; in the assay on A2780 cells (setting [2]), 5 to 10 µM.
With `c1csc(-c2cc3cnc(Nc4ccc(N5CCOCC5)cc4)nc3cc2OC2CCNCC2)n1` [Compound 645, N-(4-morpholinophenyl)-7-(piperidin-4-yloxy)-6-(thiazol-2-yl)quinazolin-2-amine], the EC50 in the assay on PC-3 cells (setting [1]) and in the assay on A2780 cells (setting [2]) was under 5 µM throughout. Further, the IC50 at PDK1 kinase (PDK1 Kinase Alpha Screen Assay) is under 5 µM.
As for `NS(=O)(=O)c1ccc(Nc2ncc3cccc(Nc4cccnc4)c3n2)cc1` [Compound 895, 4-(8-(pyridin-3-ylamino)quinazolin-2-ylamino)benzenesulfonamide], the IC50 on PDK1 kinase (PDK1 Kinase Alpha Screen Assay) is under 5 µM. The EC50 in the assay with A2780 cells (setting [3]) was 5 to 10 µM.
`NS(=O)(=O)c1ccc(Nc2ncc3cccc(CN4CCNC(=O)C4)c3n2)cc1` [Compound 896, 4-(8-((3-oxopiperazin-1-yl)methyl)quinazolin-2-ylamino)benzenesulfonamide]: the IC50 on PDK1 kinase (PDK1 Kinase Alpha Screen Assay) was under 5 µM. In the assay on A2780 cells (setting [3]), the EC50 is under 5 µM.
Take `CC(C)NCc1cccc2cnc(Nc3ccc(S(N)(=O)=O)cc3)nc12` [Compound 897, 4-(8-((isopropylamino)methyl)quinazolin-2-ylamino)benzenesulfonamide]: at PDK1 kinase (PDK1 Kinase Alpha Screen Assay), the IC50 was under 5 µM. The EC50 in the assay with A2780 cells (setting [3]) was under 5 µM.
Take `Cn1cc(-c2ccc3cnc(Nc4ccc(S(N)(=O)=O)cc4)nc3c2-c2cnn(C)c2)cn1` [Compound 898, 4-(7,8-bis(1-methyl-1H-pyrazol-4-yl)quinazolin-2-ylamino)benzenesulfonamide]: the IC50 at PDK1 kinase (PDK1 Kinase Alpha Screen Assay) is under 5 µM. Further, in the assay on A2780 cells (setting [3]), the EC50 was under 5 µM.
For the compound `NS(=O)(=O)c1ccc(Nc2ncc3ccc(-c4cccnc4)c(-c4cccnc4)c3n2)cc1` [Compound 899, 4-(7,8-di(pyridin-3-yl)quinazolin-2-ylamino)benzenesulfonamide], at PDK1 kinase (PDK1 Kinase Alpha Screen Assay), the IC50 is under 5 µM. Moreover, in the assay with A2780 cells (setting [3]), the EC50 is under 5 µM.
For `Nc1ccc(-c2ccc3cnc(Nc4ccc(S(N)(=O)=O)cc4)nc3c2-c2ccc(N)nc2)cn1` [Compound 900, 4-(7,8-bis(6-aminopyridin-3-yl)quinazolin-2-ylamino)benzenesulfonamide], the IC50 at PDK1 kinase (PDK1 Kinase Alpha Screen Assay) was under 5 µM. Moreover, the EC50 with A2780 cells (setting [3]) is 5 to 10 µM.
As to `NS(=O)(=O)c1ccc(Nc2ncc3cccc(CNCc4ccccc4)c3n2)cc1` [Compound 901, 4-(8-((benzylamino)methyl)quinazolin-2-ylamino)benzenesulfonamide], the IC50 on PDK1 kinase (PDK1 Kinase Alpha Screen Assay) was under 5 µM. The EC50 in the assay with A2780 cells (setting [3]) is under 5 µM.
For `NS(=O)(=O)c1ccc(Nc2ncc3cccc(CN4CCCC4)c3n2)cc1` [Compound 903, 4-(8-(pyrrolidin-1-ylmethyl)quinazolin-2-ylamino)benzenesulfonamide], the IC50 on PDK1 kinase (PDK1 Kinase Alpha Screen Assay) is under 5 µM. Moreover, the EC50 in the assay with A2780 cells (setting [3]) is under 5 µM.
`NS(=O)(=O)c1ccc(Nc2ncc3ccc(-c4ccc(F)nc4)c(-c4ccc(F)nc4)c3n2)cc1` [Compound 912, 4-(7,8-bis(6-fluoropyridin-3-yl)quinazolin-2-ylamino)benzenesulfonamide]: the IC50 at PDK1 kinase (PDK1 Kinase Alpha Screen Assay) was under 5 µM. Further, the EC50 in the assay on A2780 cells (setting [3]) was under 5 µM.
With `CCN(CC)Cc1cccc2cnc(Nc3ccc(S(N)(=O)=O)cc3)nc12` [Compound 916, 4-(8-((diethylamino)methyl)quinazolin-2-ylamino)benzenesulfonamide], at PDK1 kinase, the IC50 is under 5 µM. Also, the EC50 in the assay with A2780 cells (A2780 cells) was under 5 µM.
For the compound `NS(=O)(=O)c1ccc(Nc2ncc3cccc(CNCc4cccnc4)c3n2)cc1` [Compound 917, 4-(8-((pyridin-3-ylmethylamino)methyl)quinazolin-2-ylamino)benzenesulfonamide], the IC50 at PDK1 kinase was under 5 µM. Besides, the EC50 in the assay with A2780 cells (A2780 cells) was under 5 µM.
Consider `NS(=O)(=O)c1ccc(Nc2ncc3cccc(CNCCc4cnc[nH]4)c3n2)cc1` [Compound 918, 4-(8-((2-(1H-imidazol-5-yl)ethylamino)methyl)quinazolin-2-ylamino)benzenesulfonamide], for which the IC50 on PDK1 kinase was under 5 µM. The EC50 in the assay with A2780 cells (A2780 cells) is 5 to 10 µM.
For `NC(=O)C1CCN(Cc2cccc3cnc(Nc4ccc(S(N)(=O)=O)cc4)nc23)CC1` [Compound 919, 1-((2-(4-sulfamoylphenylamino)quinazolin-8-yl)methyl)piperidine-4-carboxamide] the same measures were under 5 µM and 5 to 10 µM.
With `NS(=O)(=O)c1ccc(Nc2ncc3cccc(CNC4CCOCC4)c3n2)cc1` [Compound 920], the IC50 at PDK1 kinase is under 5 µM. Further, the EC50 in the assay with A2780 cells (A2780 cells) was under 5 µM.
For `NS(=O)(=O)c1ccc(Nc2ncc3cccc(CNC4CCCCC4)c3n2)cc1` [Compound 921, 4-(8-((cyclohexylamino)methyl)quinazolin-2-ylamino)benzenesulfonamide], at PDK1 kinase, the IC50 was under 5 µM. Moreover, the EC50 in the assay with A2780 cells (A2780 cells) is under 5 µM.
As for `NS(=O)(=O)c1ccc(Nc2ncc3cccc(CNCC4CCCO4)c3n2)cc1` (stereo not shown) [Compound 922, 4-(8-(((tetrahydrofuran-2-yl)methylamino)methyl)quinazolin-2-ylamino)benzenesulfonamide], the IC50 on PDK1 kinase was under 5 µM. For the same compound, in the assay on A2780 cells (A2780 cells), the EC50 is under 5 µM.
For `NS(=O)(=O)c1ccc(Nc2ncc3cccc(CN4CCc5ccccc5C4)c3n2)cc1` [Compound 923, 4-(8-((3,4-dihydroisoquinolin-2(1H)-yl)methyl)quinazolin-2-ylamino)benzenesulfonamide], on PDK1 kinase, the IC50 is under 5 µM. Moreover, the EC50 with A2780 cells (A2780 cells) is under 5 µM.
As for `CC(=O)N1CCN(Cc2cccc3cnc(Nc4ccc(S(N)(=O)=O)cc4)nc23)CC1` [Compound 924, 4-(8-((4-acetylpiperazin-1-yl)methyl)quinazolin-2-ylamino)benzenesulfonamide], the IC50 at PDK1 kinase is under 5 µM. In addition, in the assay with A2780 cells (A2780 cells), the EC50 was under 5 µM.
